Where a SMILES comes first, the peptide text is derived from it.
Target: T1, Neuropilin-2 (Nrp2) (Homo sapiens, UniProt O60462)
T1 sequence (O60462 276-595): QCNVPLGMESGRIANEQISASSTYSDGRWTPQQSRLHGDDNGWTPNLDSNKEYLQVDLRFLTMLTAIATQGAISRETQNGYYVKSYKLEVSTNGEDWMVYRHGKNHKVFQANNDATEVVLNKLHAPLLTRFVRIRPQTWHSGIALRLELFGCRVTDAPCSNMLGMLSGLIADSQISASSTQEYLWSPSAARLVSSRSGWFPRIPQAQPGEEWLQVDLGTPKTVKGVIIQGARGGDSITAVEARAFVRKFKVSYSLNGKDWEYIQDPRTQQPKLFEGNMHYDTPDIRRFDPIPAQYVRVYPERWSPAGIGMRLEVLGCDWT
Assay: competition plate assay: AP-VEGF-C binding to immobilised purified Nrp2-b1b2

IC50 [µM]	SMILES
113	Oc1cc2c(cc1O)[C@H]1c3ccccc3CN[C@@H]1CC2 (racemic) [Dihydrexidine]
43	CC(C)C[C@H](NC(=O)[C@H](Cc1c[nH]c2ccccc12)NC(=O)[C@@H](NC(=O)[C@H](C)N)[C@@H](C)O)C(=O)N1CCC[C@H]1C(=O)N1CCC[C@H]1C(=O)N[C@@H](CCCNC(=N)N)C(=O)O [ATWLPPR] (H-ATWLPPR-OH)
66	COc1cc(C(=O)NS(=O)(=O)c2ccccc2C)ccc1Cc1cn(C)c2ccc(NC(=O)OC3CCCC3)cc12 [Zafirlukast]

From paper PMC4036672 (Analytical biochemistry, 2014)
